Reference: patent US9624758B2, “Use of oligo-quaternary compositions to increase scale inhibitor lifetime in a subterranean formation” (Ecolab USA Inc., priority 2012, dated 2017)
Read-outs that look alike come from different tables or passages of the source.

Tests used:
[1] = Toxicity: LC50 Fathead Minnow; conditions: in vivo
Procedure: (§1) Product A was evaluated for toxicity using various tests.

[2] = tested on: Algae; test: Toxicity: EC50 Algae
Procedure: as §1

[3] = type: cell-based
Procedure: as §1

[4] = tested on: Rat; test: Toxicity: LC50 Rat; conditions: in vivo
Procedure: as §1

[5] = Microtox; type: cell-based
Procedure: as §1

[6] = Biodegradation
Procedure: as §1

[7] = tested on: Daphnia Magna; test: Toxicity: EC50 Daphnia Magna; type: in vivo
Procedure: as §1

[8] = Compatibility test of scale inhibitor solutions with Product A solution in synthetic brine; type: physicochemical; set-up: key: C—Clear; P—Precipitate; conditions: for Clarity of Mixed Solutions 10:90: ratio 10:90; for Clarity of Mixed Solutions 50:50: ratio 50:50
Source text: Individual solutions (Solutions 1B through 1G) of 10% Product B, C, D, E, F and G, respectively, in a synthetic brine (see the table below showing the synthetic brine composition) were mixed with a 10% solution (Solution 2) of Product A in the synthetic brine. The two sets of solutions were mixed with Solution 2 (i.e., each of Solutions 1B through 1G were mixed with Solution 2) at ratios of 10:90, 30:70, 50:50, 70:30 and 90:10 to indicate that no precipitate would form at any concentration in the mixing concentration range from 10:90 to 90:10. These compatibility screening tests indicate that it is unlikely for any incompatibility to be experienced during deployment and flow back of a squeeze treatment. Any incompatibilities under ambient conditions were observed visually from solution clarity and/or precipitate. The samples were then heated to the test temperature (80° C.) and any further incompatibilities after 2 and 24 hours recorded.

[9] = Coreflood on Bandera outcrop cores; conditions: post versus pre treatment
Procedure: Two corefloods were carried out simultaneously on two Bandera outcrop cores (1.5″ diameter by 3″ length), using a Scaled Solutions dual coreflood apparatus. The composition of these cores is set out in the table below:
Both cores were wrapped with PTFE tape and cased in heat shrink tubing prior to insertion into a Viton sleeve and mounted in a Hassler type core holder with a confining pressure of 1200 psi. Both cores were then flushed with synthetic brine at 1 mL/min for at least 2 hours and until the differential pressure was stable. Brine was flushed at 0.5 mL/min overnight.
Both cores were saturated with synthetic brine under ambient conditions in the forward direction at 1 mL/min for 10 minutes, 2 mL/min for 10 minutes, 3 mL/min for 10 minutes, and 4 mL/min for 2 hours and until the differential pressure was stable. After a stable differential pressure was achieved, the permeability to brine was measured in the forward flow by flooding at 4, 3, 2, 1 mL/min at room temperature.
Brine was then injected into both cores in the forward direction at 1 mL/min until the oven reached a temperature of 80° C. […] Following plug saturation, the permeability of each core to synthetic brine was measured in the forward flow by flooding at 4, 3, 2, and 1 mL/min at 80° C. […]
Both cores were injected with synthetic brine at 2 mL/min with effluent samples being collected. The samples were analyzed by ICP. […]

[10] = 10% scale inhibitor solution : 10% Product A solution in synthetic brine, ambient, then 80° C. 2 and 24 hours
[11] = 10% solutions in synthetic brine, with Product A
[12] = ratio 30:70 (second column), 10% solutions in synthetic brine, with Product A
[13] = ratio printed 30:70 (fourth column), 10% solutions in synthetic brine, with Product A

Molecule	LC50 [1] [µg/mL]	EC50 [2] [µg/mL]	Ames Test [3]	LC50 Rat [4]	IC50 ([5]; 5 min, read-out: 5-min IC50 (95% CI)) [µg/mL]	IC50 ([5]; 0.25 h, 15 min, read-out: 15-min IC50 (95% CI)) [µg/mL]	Biodegradation [6] [%]	EC50 [7] [µg/mL]	Clarity of Mixed Solutions 10:90 [8, 10]	Clarity of Mixed Solutions 10:90 [8, 11]	Clarity of Mixed Solutions 30:70 [8, 12]	Clarity of Mixed Solutions 50:50 [8, 11]	Clarity of Mixed Solutions 30:70 [8, 13]	Permeability Recovery [9] [%]
C[N+](C)(C)CC(O)C[N+](C)(C)C.[Cl-].[Cl-] [Product A, 1,3-propandiaminium, 2-hydroxy-N,N,N,N′,N′,N′-hexamethyl-, dichloride]	> 1000	1500	Non-	4,000 mg/kg	> 4000	> 4000	9	186						
O=P(O)(O)CN(CCCCCCN(CP(=O)(O)O)CP(=O)(O)O)CCCCCCN(CP(=O)(O)O)CP(=O)(O)O [Product B, BHMT phosphonate]									C	C	C	C	C	75
DETA phosphonate [Product C]									C	C	C	C	C	
